US5512548A, “CETP inhibitor polypeptide, antibodies against the synthetic polypeptide and prophylactic and therapeutic anti-atherosclerosis treatments” (Southwest Foundation for Biomedical Research, priority 1994, dated 1996)

System: CETP
Assay: Cholesteryl ester transfer assay (CE transfer from 3H CE-HDL3 to VLDL+LDL with LPDS as CETP source)
Assay type: biochemical, baboon (Papio sp.)
Conditions: electroeluted from gels, increasing concentrations, lipoproteins from low HDL1 baboons
Description: The CE transfer activity of a sample was assayed by a modification of a procedure described previously (Kushwaha et al, (1986), supra).
Briefly, ^3 H CE-labeled HDL3 containing 50-100 μg of CE from low HDL1 baboons was incubated with VLDL+LDL containing 100-300 μg CE in the presence of LPDS. The acceptor lipoproteins and the LPDS were obtained from low HDL1 baboon plasma (chow diet). In some cases the HDL3 was obtained from high HDL1 baboons maintained on the HCHF diet.
The incubations were carried out at 4° C. (control) and 37° C. for 4-6 hrs, and terminated by placing the samples on ice. The assay mixture was then ultracentrifuged to separate VLDL+LDL having a […], and the radioactivity in the lipoproteins was counted as described previously (Kushwaha et al, (1986), supra). Any difference observed in the radioactivity transferred from HDL to VLDL+LDL at 4° C. and 37° C. was attributed to CETP activity in the LPDS.
Time course experiments gave a linear response up to 7 hrs. Similarly, the CETP activity was linear with increasing LPDS, up to 140 μl LPDS, which was derived from an equivalent volume of plasma. […]
The percent difference between the control experiment and the assay with inhibitor peptide was expressed as the inhibitor activity. […]

With Albumin the “effect on the transfer of CE from HDL to VLDL+LDL (CETP activity)” value was “no effect”.
